Laboratory results taken from PMC7162861, “Synthesis, cytotoxicity, pharmacokinetic profile, binding with DNA and BSA of new imidazo[1,2-a]pyrazine-benzo[d]imidazol-5-yl hybrids” (Scientific Reports, 2020).

Tests used:
[1] = tested on: IGROV1; assay: NCI cytotoxicity screen, Ovarian Cancer panel; assay type: cell-based; conditions: Homo sapiens, IGROV-1, single dose 10 µM, negative = lethal, read-out: Percent growth inhibition
Protocol: (§1) Cytotoxicity was performed at National Cancer Institute (NCI), Bethesda, USA as per their protocols.

[2] = tested on: OVCAR-4; assay: NCI cytotoxicity screen, Ovarian Cancer panel; assay type: cell-based; conditions: Homo sapiens; OVCAR-4; single dose 10 µM; negative = lethal; read-out: Percent growth inhibition
Protocol: as §1

[3] = tested on: SK-OV-3; assay: NCI cytotoxicity screen, Ovarian Cancer panel; assay type: cell-based; conditions: Homo sapiens, single dose 10 µM, negative = lethal, read-out: Percent growth inhibition
Protocol: as §1

[4] = tested on: NCI/ADR-RES; assay: NCI cytotoxicity screen, Ovarian Cancer panel; assay type: cell-based; conditions: Homo sapiens, single dose 10 µM, negative = lethal, read-out: Percent growth inhibition
Protocol: as §1

[5] = tested on: OVCAR-8; assay: NCI cytotoxicity screen, Ovarian Cancer panel; assay type: cell-based; conditions: Homo sapiens, single dose 10 µM, negative = lethal, read-out: Percent growth inhibition
Protocol: as §1

[6] = tested on: OVCAR-5; assay: NCI cytotoxicity screen, Ovarian Cancer panel; assay type: cell-based; conditions: Homo sapiens, single dose 10 µM, negative = lethal, read-out: Percent growth inhibition
Protocol: as §1

[7] = tested on: BT-549; assay: NCI cytotoxicity screen, Breast Cancer panel; assay type: cell-based; conditions: Homo sapiens, single dose 10 µM, negative = lethal, read-out: Percent growth inhibition
Protocol: as §1

[8] = tested on: T-47D; assay: NCI cytotoxicity screen, Breast Cancer panel; assay type: cell-based; conditions: Homo sapiens, T47D, T-47D; single dose 10 µM; negative = lethal; read-out: Percent growth inhibition
Protocol: as §1

[9] = tested on: MCF7; assay: NCI cytotoxicity screen, Breast Cancer panel; assay type: cell-based; conditions: Homo sapiens, single dose 10 µM, negative = lethal, read-out: Percent growth inhibition
Protocol: as §1

[10] = tested on: HS 578 T; assay: NCI cytotoxicity screen, Breast Cancer panel; assay type: cell-based; conditions: Homo sapiens; HS 578T; single dose 10 µM; negative = lethal; read-out: Percent growth inhibition
Protocol: as §1

[11] = tested on: MDA-MB-468; assay: NCI cytotoxicity screen, Breast Cancer panel; assay type: cell-based; conditions: Homo sapiens, single dose 10 µM, negative = lethal, read-out: Percent growth inhibition
Protocol: as §1

[12] = tested on: MDA-MB-231/ATCC; assay: NCI cytotoxicity screen, Breast Cancer panel; assay type: cell-based; conditions: Homo sapiens, MDA-MB-231, read-out: Percent growth inhibition
Protocol: as §1

[13] = tested on: NCI-H226; assay: NCI cytotoxicity screen, Non-Small Cell Lung Cancer panel; assay type: cell-based, human; conditions: Homo sapiens, single dose 10 µM, negative = lethal, read-out: Percent growth inhibition
Protocol: as §1

[14] = tested on: NCI-H322M; assay: as above; assay type: cell-based, human; conditions: Homo sapiens, single dose 10 µM, negative = lethal, read-out: Percent growth inhibition
Protocol: as §1

[15] = tested on: NCI-H23; assay: as above; assay type: cell-based, human; conditions: Homo sapiens, single dose 10 µM, negative = lethal, read-out: Percent growth inhibition
Protocol: as §1

[16] = tested on: NCI-522; assay: as above; assay type: cell-based, human; conditions: Homo sapiens; NCI-522; single dose 10 µM; negative = lethal; read-out: Percent growth inhibition
Protocol: as §1

[17] = tested on: UACC-62; assay: NCI cytotoxicity screen, Melanoma panel; assay type: cell-based, human; conditions: Homo sapiens, single dose 10 µM, negative = lethal, read-out: Percent growth inhibition
Protocol: as §1

[18] = tested on: LOX IMVI; assay: NCI cytotoxicity screen, Melanoma panel; assay type: cell-based, human; conditions: Homo sapiens, single dose 10 µM, negative = lethal, read-out: Percent growth inhibition
Protocol: as §1

[19] = tested on: M14; assay: NCI cytotoxicity screen, Melanoma panel; assay type: cell-based, human; conditions: Homo sapiens, single dose 10 µM, negative = lethal, read-out: Percent growth inhibition
Protocol: as §1

[20] = Experimental log P, shake-flask method; assay type: physicochemical; conditions: n-octanol/phosphate buffer pH 7.4, read-out: Exp. Log P
Protocol: Partition coefficients or experimental log P values of all synthesized compounds (9–23, 30 and 31) were calculated using the shake-flask method. Log P values were determined using n-octanol and phosphate buffer (pH = 7.4) at 10:1 ratio of volumes. Stock solutions (10^−3 M) of compounds were prepared in DMSO. Glass vials were used to make final solutions i.e. stock solution (250 µL) and phosphate buffer (125 µL). To record the absorbance, wavelength was selected based on λmax of the respective compound. Initial absorbance (Ai) for every compound was noted consuming the stock solution in the buffer phase. Now added n-octanol to every vial and shaken well using a mechanical shaker for 50 minutes. To get separation of both phases, glass vials were centrifuged for 35 min. at 2500 rpm. Then, the layer of octanol was separated from glass vial. The final absorbance (Af) of each compound was recorded by using the buffer layer. The values of P for compounds were determined by the following equation (Eq. 8):8 P=Ai−Af/Af×Vw/Vo

[21] = tested on: OVCAR-3; assay: NCI cytotoxicity screen, Ovarian Cancer panel; assay type: cell-based, human; conditions: Homo sapiens; OVCAR-3; single dose 10 µM; negative = lethal; read-out: Percent growth inhibition
Protocol: as §1

[22] = tested on: PC-3; assay: NCI cytotoxicity screen, Prostate Cancer panel; assay type: cell-based, human; conditions: Homo sapiens, single dose 10 µM, negative = lethal, read-out: Percent growth inhibition
Protocol: as §1

[23] = tested on: DU-145; assay: NCI cytotoxicity screen, Prostate Cancer panel; assay type: cell-based, human; conditions: Homo sapiens, single dose 10 µM, negative = lethal, read-out: Percent growth inhibition
Protocol: as §1

[24] = tested on: HT29; assay: NCI cytotoxicity screen, Colon Cancer panel; assay type: cell-based; conditions: Homo sapiens, HT-29; HT29; single dose 10 µM; negative = lethal; read-out: Percent growth inhibition
Protocol: as §1

[25] = tested on: HCT-116; assay: NCI cytotoxicity screen, Colon Cancer panel; assay type: cell-based; conditions: Homo sapiens, single dose 10 µM, negative = lethal, read-out: Percent growth inhibition
Protocol: as §1

[26] = tested on: COLO 205; assay: NCI cytotoxicity screen, Colon Cancer panel; assay type: cell-based; conditions: Homo sapiens, single dose 10 µM, negative = lethal, read-out: Percent growth inhibition
Protocol: as §1

[27] = tested on: HCT-15; assay: NCI cytotoxicity screen, Colon Cancer panel; assay type: cell-based; conditions: Homo sapiens, single dose 10 µM, negative = lethal, read-out: Percent growth inhibition
Protocol: as §1

[28] = tested on: SK-MEL-28; assay: NCI cytotoxicity screen, Melanoma panel; assay type: cell-based; conditions: Homo sapiens, single dose 10 µM, negative = lethal, read-out: Percent growth inhibition
Protocol: as §1

[29] = tested on: SK-MEL-5; assay: NCI cytotoxicity screen, Melanoma panel; assay type: cell-based; conditions: Homo sapiens, single dose 10 µM, negative = lethal, read-out: Percent growth inhibition
Protocol: as §1

[30] = tested on: UACC-257; assay: NCI cytotoxicity screen, Melanoma panel; assay type: cell-based; conditions: Homo sapiens, single dose 10 µM, negative = lethal, read-out: Percent growth inhibition
Protocol: as §1

[31] = tested on: MALME-3M; assay: NCI cytotoxicity screen, Melanoma panel; assay type: cell-based; conditions: Homo sapiens; MALME-3M; single dose 10 µM; negative = lethal; read-out: Percent growth inhibition
Protocol: as §1

[32] = tested on: MDA-MB-435; assay: NCI cytotoxicity screen, Melanoma panel; assay type: cell-based; conditions: Homo sapiens, MDA-MB-435, read-out: Percent growth inhibition
Protocol: as §1

[33] = tested on: SK-MEL-2; assay: NCI cytotoxicity screen, Melanoma panel; assay type: cell-based; conditions: Homo sapiens, single dose 10 µM, negative = lethal, read-out: Percent growth inhibition
Protocol: as §1

[34] = tested on: HOP-92; assay: NCI cytotoxicity screen, Non-Small Cell Lung Cancer panel; assay type: cell-based; conditions: Homo sapiens, single dose 10 µM, negative = lethal, read-out: Percent growth inhibition
Protocol: as §1

[35] = tested on: HOP-62; assay: as above; assay type: cell-based; conditions: Homo sapiens, single dose 10 µM, negative = lethal, read-out: Percent growth inhibition
Protocol: as §1

[36] = tested on: A549/ATCC; assay: as above; assay type: cell-based; conditions: Homo sapiens; A549/ATCC; single dose 10 µM; negative = lethal; read-out: Percent growth inhibition
Protocol: as §1

[37] = tested on: EXVX; assay: as above; assay type: cell-based; conditions: Homo sapiens; EXVX; single dose 10 µM; negative = lethal; read-out: Percent growth inhibition
Protocol: as §1

[38] = tested on: NCI-H460; assay: as above; assay type: cell-based; conditions: Homo sapiens, single dose 10 µM, negative = lethal, read-out: Percent growth inhibition
Protocol: as §1

[39] = tested on: RXF 393; assay: NCI cytotoxicity screen, Renal Cancer panel; assay type: cell-based; conditions: Homo sapiens, single dose 10 µM, negative = lethal, read-out: Percent growth inhibition
Protocol: as §1

[40] = tested on: A498; assay: NCI cytotoxicity screen, Renal Cancer panel; assay type: cell-based; conditions: Homo sapiens, single dose 10 µM, negative = lethal, read-out: Percent growth inhibition
Protocol: as §1

[41] = tested on: UO-31; assay: NCI cytotoxicity screen, Renal Cancer panel; assay type: cell-based; conditions: Homo sapiens, single dose 10 µM, negative = lethal, read-out: Percent growth inhibition
Protocol: as §1

[42] = tested on: SN12C; assay: NCI cytotoxicity screen, Renal Cancer panel; assay type: cell-based; conditions: Homo sapiens, single dose 10 µM, negative = lethal, read-out: Percent growth inhibition
Protocol: as §1

[43] = tested on: ACHN; assay: NCI cytotoxicity screen, Renal Cancer panel; assay type: cell-based; conditions: Homo sapiens, single dose 10 µM, negative = lethal, read-out: Percent growth inhibition
Protocol: as §1

## c1ccc(-c2cn3ccnc3c(-c3ccc4c(c3)ncn4C3CCCCC3)n2)cc1 [Compound 9, 8-(1-cyclohexyl-1H-benzo[d]imidazol-5-yl)-6-phenylimidazo[1,2-a]pyrazine]
[1]
  inhibition at 10 µM: < 1%
[2]
  inhibition at 10 µM: < 1%
[3]
  inhibition at 10 µM: < 1%
[4]
  inhibition at 10 µM: < 1%
[5]
  inhibition at 10 µM: < 1%
[6]
  inhibition at 10 µM: < 1%
[7]
  inhibition at 10 µM: 0.43%
[8]
  inhibition at 10 µM: 25.5%
[9]
  inhibition at 10 µM: 15.8%
[10]
  inhibition at 10 µM: < 1%
[11]
  inhibition at 10 µM: < 1%
[12]
  inhibition at 10 µM: 6.64%
[13]
  inhibition at 10 µM: < 1%
[14]
  inhibition at 10 µM: 2.91%
[15]
  inhibition at 10 µM: < 1%
[16]
  inhibition at 10 µM: 16.1%
[17]
  inhibition at 10 µM: 2.01%
[18]
  inhibition at 10 µM: 4.86%
[19]
  inhibition at 10 µM: 1.61%
[20]
  logP: 1.59
[21]
  inhibition at 10 µM: < 1%
[22]
  inhibition at 10 µM: 13.5%
[23]
  inhibition at 10 µM: 2.64%
[24]
  inhibition at 10 µM: 9.21%
[25]
  inhibition at 10 µM: 3.81%
[26]
  inhibition at 10 µM: 0.28%
[27]
  inhibition at 10 µM: 19.1%
[28]
  inhibition at 10 µM: < 1%
[29]
  inhibition at 10 µM: 5.71%
[30]
  inhibition at 10 µM: < 1%
[31]
  inhibition at 10 µM: < 1%
[32]
  inhibition at 10 µM: 0.53%
[33]
  inhibition at 10 µM: < 1%
[34]
  inhibition at 10 µM: 10.9%
[35]
  inhibition at 10 µM: 12.9%
[36]
  inhibition at 10 µM: 9%
[37]
  inhibition at 10 µM: 2.51%
[38]
  inhibition at 10 µM: < 1%
[39]
  inhibition at 10 µM: 23.3%
[40]
  inhibition at 10 µM: < 1%
[41]
  inhibition at 10 µM: 20.9%
[42]
  inhibition at 10 µM: 4.83%
[43]
  inhibition at 10 µM: < 1%

## COc1ccc(-c2cn3ccnc3c(-c3ccc4c(c3)ncn4C3CCCCC3)n2)cc1 [Compound 10, 8-(1-cyclohexyl-1H-benzo[d]imidazol-5-yl)-6-(4-methoxyphenyl)imidazo[1,2-a]pyrazine]
[1]
  inhibition at 10 µM: 5.82%
[2]
  inhibition at 10 µM: 7.51%
[3]
  inhibition at 10 µM: 5.37%
[4]
  inhibition at 10 µM: 1.93%
[5]
  inhibition at 10 µM: 7.75%
[6]
  inhibition at 10 µM: 1.45%
[7]
  inhibition at 10 µM: 8.55%
[8]
  inhibition at 10 µM: 46.2%
[9]
  inhibition at 10 µM: 19.7%
[10]
  inhibition at 10 µM: 5.69%
[11]
  inhibition at 10 µM: < 1%
[12]
  inhibition at 10 µM: < 1%
[13]
  inhibition at 10 µM: < 1%
[14]
  inhibition at 10 µM: < 1%
[15]
  inhibition at 10 µM: < 1%
[16]
  inhibition at 10 µM: 18.5%
[17]
  inhibition at 10 µM: 1.25%
[18]
  inhibition at 10 µM: 7.86%
[19]
  inhibition at 10 µM: 9.96%
[20]
  logP: 1.44
[21]
  inhibition at 10 µM: < 1%
[22]
  inhibition at 10 µM: 22.6%
[23]
  inhibition at 10 µM: < 1%
[24]
  inhibition at 10 µM: < 1%
[25]
  inhibition at 10 µM: 18.6%
[26]
  inhibition at 10 µM: < 1%
[27]
  inhibition at 10 µM: 11.9%
[28]
  inhibition at 10 µM: 4.86%
[29]
  inhibition at 10 µM: 5.95%
[30]
  inhibition at 10 µM: < 1%
[31]
  inhibition at 10 µM: < 1%
[32]
  inhibition at 10 µM: 6.92%
[33]
  inhibition at 10 µM: 9.88%
[34]
  inhibition at 10 µM: 17.4%
[35]
  inhibition at 10 µM: 3.33%
[36]
  inhibition at 10 µM: 7.33%
[37]
  inhibition at 10 µM: 7.85%
[38]
  inhibition at 10 µM: 2.9%
[39]
  inhibition at 10 µM: < 1%
[40]
  inhibition at 10 µM: < 1%
[41]
  inhibition at 10 µM: 33.5%
[42]
  inhibition at 10 µM: < 1%
[43]
  inhibition at 10 µM: 10.9%
